From patent publication US20240197724A1, “THERAPEUTIC AGENT FOR GAIT DISTURBANCE” (NIPPON SHINYAKU CO., LTD., priority 2021, published 2024)

Experiments:
[1] = test system: FeCl3-induced thrombus in femoral artery; experiment: Antithrombotic effect in rat FeCl3-induced thrombus model; type: in vivo; conditions: male Wistar rats
Description: Methylcellulose (METOLOSE, SM-400, Shin-Etsu Chemical Co., Ltd.) was dissolved in distilled water, to prepare a 0.5 w/v% methylcellulose aqueous solution. The 0.5 w/v% methylcellulose aqueous solution was added to the compound A, to prepare a 10 mg/mL suspension of compound A in the 0.5 w/v% methylcellulose aqueous solution. • (b) Beraprost Sodium The 0.5 w/v% methylcellulose aqueous solution was added to beraprost sodium, to prepare a 1.0 mg/mL aqueous solution of beraprost sodium in the 0.5 w/v% methylcellulose aqueous solution. • (c) Cilostazol The 0.5 w/v% methylcellulose aqueous solution was added to cilostazol, to prepare a 150 or 50 mg/mL suspension of cilostazol. Urethane (Wako Pure Chemical Industries, Ltd.) was dissolved in saline (Otsuka Pharmaceutical Factory, Inc.) to prepare a solution of 0.3 g/mL. The urethane saline solution was subcutaneously administered to rats at 4 mL per 1 kg of body weight (1.2 g/kg) to anesthetize them. […] Male Wistar rats aged 9 to 10 weeks were used as rats. The abdomen of the rat was incised to expose the duodenum, and drugs were injected 2 to 3 mm downstream from the vicinity of the gastric-duodenal boundary using a 26G injection needle and syringe. The compound A and beraprost sodium were administered at a dose of 1 mL/kg, and cilostazol was administered at a dose of 2 mL/kg. The skin on the right thigh of the rat was incised to expose the femoral artery, and the vein and nerve were dissected. A parafilm was placed under the dissected femoral artery to completely separate the femoral artery, vein, and nerve. A laser Doppler blood flowmeter (ALF21, Advance) probe was placed on the femoral artery to start measuring the blood flow (mL/min/g). 60 minutes after the administration for the compound A-administered group, 30 minutes after the administration for the beraprost sodium-administered group, and 120 minutes after the administration for the cilostazol-administered group, a filter paper (2 mm×5 mm) impregnated with a 10 w/w% FeCl3 aqueous solution was placed on the femoral artery, and changes in blood flow were measured using a biometric data processing system (FLO-WB, Omega Wave Co., Ltd.) and recorded.

[2] = test system: ischemic gait disturbance caused by ligation of the iliac artery; experiment: Gait improvement in rat ischemic gait disturbance model (iliac artery ligation, treadmill); type: in vivo; conditions: male Wistar rats, 3 mg/kg orally twice a day for 9 days from one day after surgery; measured 3, 7 and 10 days after surgery; p<0.01 vs control
Description: Wistar rats (male, 7 week-old) (available from CHARLES RIVER LABORATORIES JAPAN, INC.) were subjected to gait training using a treadmill (MK-680, available from Muromachi Kikai Co., Ltd.) for three consecutive days-6 days before surgery, 5 days before surgery, and 4 days before surgery. On the day before surgery, the pre-value of the walking distance was measured, the animals were divided into groups, and sham surgery or iliac artery ligation surgery described in i) below was performed. […] Walking time was measured 3 days, 7 days and 10 days after the surgery. Based on the measured walking time, the walking distance was calculated. • i) Method of Iliac Artery Ligation Surgery Rats were anesthetized by intraperitoneal administration of 50 mg/kg pentobarbital sodium (Somnopentyl®, Schering-Plough Animal Health). […] The ligation of the iliac artery was performed by the data manager and this information was not disclosed to the gait tester until the study was completed. • ii) Walking Time Measurement Method The speed of the treadmill belt was increased from 15 m/min to 35 m/min by increments of 5 m/min in each 3 minutes, and the time the rat got on the electrical stimulation plate at the rear end of the belt was recorded as the dropout time. […] After the measurement, the dropout time was recorded in the gait test record. […]

[3] = test system: gait disturbance in patient with arteriosclerosis obliterans; experiment: Improvement of gait disturbance in patients with arteriosclerosis obliterans (placebo-controlled, double-blind study); type: in vivo, human; conditions: Japanese patients, 0.1 to 1.6 mg twice a day for 24 to 36 weeks
Description: As a placebo-controlled, double-blind comparative study, Japanese patients with arteriosclerosis obliterans (selected by resting ABI, or the like) received placebo or selexipag (which is compound A) at 0.1 to 1.6 mg twice a day for 24 to 36 weeks (dose adjustment period: 8 to 20 weeks, dose maintenance period: 16 weeks).

CC#CCC(C)[C@H](O)/C=C/[C@@H]1[C@H]2c3cccc(CCCC(=O)O)c3O[C@H]2C[C@H]1O (mixture of isomers) [beraprost sodium]
vascular occlusion time ([1]; 0.3 mg/kg intraduodenal, 30 minutes before induction): not prolonged
reduction in blood pressure ([1]; 0.3 mg/kg intraduodenal, observed over time): 25%
vascular occlusion time ([1]; 1 mg/kg intraduodenal, administration 30 minutes before induction, vehicle control about 12 to 15 minutes): about 43 minutes

O=C1CCc2cc(OCCCCc3nnnn3C3CCCCC3)ccc2N1 [cilostazol]
vascular occlusion time ([1]; 150 or 50 mg/mL suspension at 2 mL/kg intraduodenal, 120 minutes before induction): Neither dose of cilostazol prolonged the occlusion time

CC(C)N(CCCCOCC(=O)NS(C)(=O)=O)c1cnc(-c2ccccc2)c(-c2ccccc2)n1 [compound A, 2-{4-[N-(5,6-diphenylpyrazine-2-yl)-N-isopropylamino]butyloxy}-N-(methylsulfonyl) acetamide]
vascular occlusion time ([1]; 10 mg/kg intraduodenal, administration 60 minutes before induction, vehicle control about 12 to 15 minutes): about 22 minutes
improvement of gait disturbance (walking distance, FIG. 1) [2]: significantly improved gait disturbance
improvement of gait disturbance (treadmill, maximum walking time, Gartner method) [3]: Improvement of patient's gait disturbance was confirmed
